This passage reports MIC and inhibition results from ChEMBL document CHEMBL1687767, “New antiseptic peptides to protect against endotoxin-mediated shock” (Antimicrob Agents Chemother, 2010).

Format in all cases: functional
For one test, the system named is Escherichia coli. Kind of test: Antimicrobial activity against Escherichia coli ATCC 25922 by broth microdilution method. (In general: In broth dilution the organism is exposed to a series of concentrations in liquid medium.)
The test system of test [1] is Pseudomonas aeruginosa. The test is described as follows: Antimicrobial activity against Pseudomonas aeruginosa CUN 4158-02 by broth microdilution method.
Test [2] relates to Staphylococcus aureus. The test is described as follows: Antimicrobial activity against methicillin-resistant Staphylococcus aureus CUN 3792-99 by broth microdilution method.
Test [3] has as its system Staphylococcus aureus. Kind of test: Antimicrobial activity against methicillin-resistant Staphylococcus aureus ATCC 43300 by broth microdilution method.
Test [4] concerns Bordetella bronchiseptica. Kind of test: Antimicrobial activity against Bordetella bronchiseptica CUN11844-99 by broth microdilution method.
For test [5], the system named is Staphylococcus aureus. Kind of test: Antimicrobial activity against Staphylococcus aureus ATCC 25923 by broth microdilution method.
In test [6] the test system is Pseudomonas aeruginosa. The test is described as follows: Antimicrobial activity against Pseudomonas aeruginosa ATCC 27853 by broth microdilution method.
Another test relates to Acinetobacter baumannii. The test is described as follows: Antimicrobial activity against […] Acinetobacter baumannii ATCC 19606 by broth microdilution method.
The subject of test [7] is Stenotrophomonas maltophilia. Kind of test: Antimicrobial activity against […] Stenotrophomonas maltophilia CUN 3998-00 by broth microdilution method.
For the next test, the species on record is Homo sapiens. Kind of test: Antiinflammatory activity in human MNC assessed as inhibition of LPS-induced TNFalpha production at compound: LPS ratio of 100:1 weight percent by ELISA. (ELISA stands for enzyme-linked immunosorbent assay.)

Converted amounts (≈) assume the structure as drawn. The source made the active and inactive calls. No cut-off for these calls is given here. Residues, ends and D or L forms follow the SMILES beside them.

As usually defined, the MIC is the lowest concentration found to suppress growth. The low end stands for greater potency, the high end for weaker potency. With `N=C(N)NCCC[C@H](NC(=O)CNC(=O)[C@H](CCCNC(=N)N)NC(=O)[C@H](Cc1ccc(O)cc1)NC(=O)[C@H](CCCNC(=N)N)NC(=O)[C@H](Cc1c[nH]c2ccccc12)NC(=O)[C@H](CCCCN)NC(=O)[C@H](CCCCN)NC(=O)[C@H](Cc1ccccc1)NC(=O)[C@H](CCCCN)NC(=O)[C@H](CCCCN)NC(=O)[C@H](Cc1ccccc1)NC(=O)[C@H](CCCNC(=N)N)NC(=O)[C@H](CCCNC(=N)N)NC(=O)[C@H](CS)NC(=O)CN)C(=O)N[C@@H](Cc1ccccc1)C(=O)N[C@@H](Cc1c[nH]c2ccccc12)C(=O)N[C@@H](Cc1ccccc1)C(=O)N[C@@H](Cc1c[nH]c2ccccc12)C(=O)N[C@@H](CS)C(=O)N[C@@H](Cc1ccccc1)C(=O)NCC(=O)O` (H-GCRRFKKFKKWRYRGRFWFWCFG-OH), the MIC in the test on Escherichia coli was determined as 64 µg/mL (≈ 20.3 µM); with Pseudomonas aeruginosa [1], 128 µg/mL (≈ 40.7 µM); against Staphylococcus aureus [2], 64 µg/mL (≈ 20.3 µM); against Staphylococcus aureus [3] it was 32 µg/mL (≈ 10.2 µM); in test [4], 32 µg/mL (≈ 10.2 µM); in the test on Staphylococcus aureus [5], 64 µg/mL (≈ 20.3 µM). In addition, the MIC in the test with Pseudomonas aeruginosa [6] came out at 128 µg/mL (≈ 40.7 µM); against Acinetobacter baumannii it was 64 µg/mL (≈ 20.3 µM); in test [7], 64 µg/mL (≈ 20.3 µM).

As to `CC(C)C[C@H](NC(=O)[C@H](CCCNC(=N)N)NC(=O)[C@H](CCCNC(=N)N)NC(=O)[C@H](Cc1ccccc1)NC(=O)[C@H](CCCCN)NC(=O)[C@H](CCCCN)NC(=O)[C@H](CS)NC(=O)CN)C(=O)N[C@@H](CCCCN)C(=O)N[C@@H](Cc1c[nH]c2ccccc12)C(=O)N[C@@H](CCCCN)C(=O)N[C@@H](Cc1ccc(O)cc1)C(=O)N[C@@H](CCCCN)C(=O)NCC(=O)N[C@@H](CCCCN)C(=O)N[C@@H](Cc1ccccc1)C(=O)N[C@@H](Cc1c[nH]c2ccccc12)C(=O)N[C@@H](Cc1ccccc1)C(=O)N[C@@H](Cc1c[nH]c2ccccc12)C(=O)N[C@@H](CS)C(=O)NCC(=O)O` (H-GCKKFRRLKWKYKGKFWFWCG-OH), the MIC with Escherichia coli was 64 µg/mL (≈ 23.2 µM); against Pseudomonas aeruginosa [1], 256 µg/mL (≈ 93 µM); against Staphylococcus aureus [2] it was 1020 µg/mL (≈ 372 µM); with Staphylococcus aureus [3] it was 64 µg/mL (≈ 23.2 µM); in [4], 4 µg/mL (≈ 1.45 µM); in the test on Staphylococcus aureus [5] it was 32 µg/mL (≈ 11.6 µM). Besides, the MIC in the test with Pseudomonas aeruginosa [6] was found to be 256 µg/mL (≈ 93 µM); against Acinetobacter baumannii, 64 µg/mL (≈ 23.2 µM); in [7], 512 µg/mL (≈ 186 µM). Besides, in the test filed under Homo sapiens, the inhibition entry is “Active”.

`N=C(N)NCCC[C@H](NC(=O)CNC(=O)[C@H](CCCNC(=N)N)NC(=O)[C@H](Cc1ccccc1)NC(=O)[C@H](CCCNC(=N)N)NC(=O)[C@H](Cc1c[nH]c2ccccc12)NC(=O)[C@H](CCCCN)NC(=O)[C@H](Cc1ccccc1)NC(=O)[C@H](CCCCN)NC(=O)[C@H](CCCCN)NC(=O)[C@H](Cc1ccc(O)cc1)NC(=O)[C@H](CCCNC(=N)N)NC(=O)[C@H](CCCNC(=N)N)NC(=O)CN)C(=O)N[C@@H](Cc1ccccc1)C(=O)N[C@@H](Cc1c[nH]c2ccccc12)C(=O)N[C@@H](Cc1ccccc1)C(=O)N[C@@H](Cc1c[nH]c2ccccc12)C(=O)NCC(=O)O` (H-GRRYKKFKWRFRGRFWFWG-OH): the MIC against Escherichia coli came to 64 µg/mL (≈ 24 µM); in [4] it was 16 µg/mL (≈ 6 µM); in the test with Staphylococcus aureus [5] it was 32 µg/mL (≈ 12 µM).

For `CC(C)C[C@H](NC(=O)[C@H](Cc1c[nH]c2ccccc12)NC(=O)[C@H](CC(C)C)NC(=O)[C@H](CCCCN)NC(=O)[C@H](CCC(N)=O)NC(=O)[C@H](CCCCN)NC(=O)[C@H](CS)NC(=O)[C@H](CCCCN)NC(=O)[C@H](CC(C)C)NC(=O)[C@H](CCCCN)NC(=O)[C@H](Cc1ccccc1)NC(=O)[C@H](CCCNC(=N)N)NC(=O)[C@H](CCCNC(=N)N)NC(=O)[C@H](Cc1ccccc1)NC(=O)[C@H](CCCCN)NC(=O)[C@H](CCCCN)NC(=O)[C@H](CS)NC(=O)CN)C(=O)N[C@@H](Cc1c[nH]c2ccccc12)C(=O)N[C@@H](CS)C(=O)NCC(=O)O` (H-GCKKFRRFKLKCKQKLWLWCG-OH), the MIC in the test with Escherichia coli came to 1020 µg/mL (≈ 385 µM); with Pseudomonas aeruginosa [1], 256 µg/mL (≈ 96.3 µM); against Staphylococcus aureus [2], 32 µg/mL (≈ 12 µM); against Staphylococcus aureus [3], 64 µg/mL (≈ 24.1 µM); in test [4], 16 µg/mL (≈ 6.02 µM); against Staphylococcus aureus [5] it was 1020 µg/mL (≈ 385 µM). Moreover, the MIC with Pseudomonas aeruginosa [6] was 256 µg/mL (≈ 96.3 µM); against Acinetobacter baumannii, 64 µg/mL (≈ 24.1 µM); in test [7], 1020 µg/mL (≈ 385 µM).

Consider `N=C(N)NCCC[C@H](NC(=O)[C@H](Cc1ccc(O)cc1)NC(=O)[C@H](CCCNC(=N)N)NC(=O)[C@H](Cc1c[nH]c2ccccc12)NC(=O)[C@H](CCCNC(=N)N)NC(=O)[C@H](Cc1ccccc1)NC(=O)[C@H](CCCCN)NC(=O)[C@H](CCCCN)NC(=O)[C@H](Cc1c[nH]c2ccccc12)NC(=O)[C@H](CCCNC(=N)N)NC(=O)[C@H](CCCNC(=N)N)NC(=O)[C@H](CS)NC(=O)CN)C(=O)NCC(=O)N[C@@H](CCCCN)C(=O)N[C@@H](Cc1ccccc1)C(=O)N[C@@H](Cc1c[nH]c2ccccc12)C(=O)N[C@@H](Cc1ccccc1)C(=O)N[C@@H](Cc1c[nH]c2ccccc12)C(=O)N[C@@H](CS)C(=O)NCC(=O)O` (H-GCRRWKKFRWRYRGKFWFWCG-OH), for which the MIC in the test with Escherichia coli came out at 128 µg/mL (≈ 44 µM); in the test on Pseudomonas aeruginosa [1], 128 µg/mL (≈ 44 µM); against Staphylococcus aureus [2], 64 µg/mL (≈ 22 µM); in the test on Staphylococcus aureus [3], 32 µg/mL (≈ 11 µM); in test [4] it was 32 µg/mL (≈ 11 µM); against Staphylococcus aureus [5], 64 µg/mL (≈ 22 µM). The figures for the MIC (against Pseudomonas aeruginosa [6]; in the test with Acinetobacter baumannii; in test [7]) were 128 µg/mL (≈ 44 µM), 64 µg/mL (≈ 22 µM) and 64 µg/mL (≈ 22 µM), respectively.

`N=C(N)NCCC[C@H](NC(=O)[C@H](Cc1ccc(O)cc1)NC(=O)[C@H](CCCCN)NC(=O)[C@H](CCCCN)NC(=O)CN)C(=O)N[C@@H](CCCNC(=N)N)C(=O)N[C@@H](Cc1ccccc1)C(=O)N[C@@H](Cc1c[nH]c2ccccc12)C(=O)N[C@@H](CCCCN)C(=O)N[C@@H](Cc1ccccc1)C(=O)N[C@@H](CCCCN)C(=O)NCC(=O)N[C@@H](CCCCN)C(=O)N[C@@H](Cc1c[nH]c2ccccc12)C(=O)N[C@@H](Cc1ccccc1)C(=O)N[C@@H](Cc1c[nH]c2ccccc12)C(=O)N[C@@H](Cc1ccccc1)C(=O)N[C@@H](Cc1c[nH]c2ccccc12)C(=O)NCC(=O)O` (H-GKKYRRFWKFKGKWFWFWG-OH): the MIC in the test with Escherichia coli came out at 1020 µg/mL (≈ 388 µM); against Pseudomonas aeruginosa [1], 32 µg/mL (≈ 12.1 µM); in the test with Staphylococcus aureus [2], 16 µg/mL (≈ 6.06 µM); in the test with Staphylococcus aureus [3] it was 16 µg/mL (≈ 6.06 µM); in test [4] it was 8 µg/mL (≈ 3.03 µM); against Staphylococcus aureus [5], 1020 µg/mL (≈ 388 µM). Further, the MIC with Pseudomonas aeruginosa [6] worked out at 8 µg/mL (≈ 3.03 µM); against Acinetobacter baumannii, 16 µg/mL (≈ 6.06 µM); in test [7] it was 64 µg/mL (≈ 24.3 µM).

With `N=C(N)NCCC[C@H](NC(=O)[C@H](Cc1ccc(O)cc1)NC(=O)[C@H](CCCCN)NC(=O)[C@H](CCCCN)NC(=O)CN)C(=O)N[C@@H](CCCNC(=N)N)C(=O)N[C@@H](Cc1ccccc1)C(=O)N[C@@H](CCCNC(=N)N)C(=O)N[C@@H](Cc1c[nH]c2ccccc12)C(=O)N[C@@H](CCCCN)C(=O)N[C@@H](Cc1ccccc1)C(=O)N[C@@H](CCCCN)C(=O)NCC(=O)N[C@@H](CCCCN)C(=O)N[C@@H](Cc1c[nH]c2ccccc12)C(=O)N[C@@H](Cc1ccccc1)C(=O)N[C@@H](Cc1c[nH]c2ccccc12)C(=O)N[C@@H](Cc1ccccc1)C(=O)NCC(=O)O` (H-GKKYRRFRWKFKGKWFWFG-OH), the MIC in the test with Escherichia coli was 16 µg/mL (≈ 6.13 µM); against Pseudomonas aeruginosa [1], 16 µg/mL (≈ 6.13 µM); against Staphylococcus aureus [2], 16 µg/mL (≈ 6.13 µM); with Staphylococcus aureus [3], 16 µg/mL (≈ 6.13 µM); in test [4], 4 µg/mL (≈ 1.53 µM); in the test with Staphylococcus aureus [5], 16 µg/mL (≈ 6.13 µM). Besides, the MIC is 16 µg/mL (≈ 6.13 µM) against Pseudomonas aeruginosa [6], 16 µg/mL (≈ 6.13 µM) against Acinetobacter baumannii and 32 µg/mL (≈ 12.3 µM) in test [7].
